Measured values from patent publication US9115101B2 (Genentech, Inc., priority 2012, dated 2015).
Read-outs that look alike come from different tables or passages of the source.

Biological target: T1, RORc ligand binding domain (Homo sapiens, UniProt P51449)
T1 construct: host or cells: E. coli
T1 sequence (P51449 269-508 limits assumed): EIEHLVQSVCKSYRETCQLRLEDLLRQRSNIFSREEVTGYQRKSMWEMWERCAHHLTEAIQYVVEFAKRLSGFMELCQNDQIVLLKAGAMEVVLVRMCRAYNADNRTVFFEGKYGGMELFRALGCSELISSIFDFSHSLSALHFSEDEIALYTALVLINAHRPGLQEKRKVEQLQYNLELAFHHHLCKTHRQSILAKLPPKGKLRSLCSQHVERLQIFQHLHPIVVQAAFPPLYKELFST
Assay: In Vitro RORc Ligand Binding Assay (25-[3H]hydroxycholesterol radioligand filtration)
Settings: read-out: RORc IC50

[1] = In Vitro RORc Ligand Binding Assay, Table 4

Row | Compound | IC50 [1] [nM] | IC50 [nM]
1 | C[C@H]1CCC(c2ccccc2)S(=O)(=O)N1Cc1ccc(N2CCC(c3nccn3C)CC2)cc1F (single isomer, unassigned) [Example 140] | 410 | –
2 | C[C@H]1CCC(c2ccccc2)S(=O)(=O)N1Cc1ccc(N2CCC3(COC3)C2)cc1F (single isomer, unassigned) [Example 107] | 20 | –
3 | CC(=O)N1CCN(c2ccc(CN3[C@@H](C)CCC(c4cccc(F)c4)S3(=O)=O)c(F)c2)CC1 (single isomer, unassigned) [Example 128] | 52 | –
4 | CC(=O)N1CCN(c2ccc(CN3[C@@H](C)CCC(c4cccc(Cl)c4)S3(=O)=O)c(F)c2)CC1 (single isomer, unassigned) [Example 185] | 25 | –
5 | CC(=O)N1CCN(c2ccc(CN3[C@@H](C)CCC(c4ccccc4)S3(=O)=O)cc2)CC1 (single isomer, unassigned) [Example 41] | 126 | –
6 | C[C@H](O)C(=O)N1CCCN(c2ccc(CN3[C@@H](C)CCC(c4ccccc4)S3(=O)=O)c(F)c2)CC1 (single isomer, unassigned) [Example 91] | 254 | –
7 | CS(=O)(=O)N1CCC(Oc2ccc(CN3CCCC(c4ccccc4)S3(=O)=O)c(F)c2)CC1 (single isomer, unassigned) [Example 54, 2-(2-fluoro-4-((1-(methylsulfonyl)piperidin-4-yl)oxy)benzyl)-6-phenyl-1,2-thiazinane 1,1-dioxide] | 37 | –
8 | C[C@H]1CCC(c2ccccc2)S(=O)(=O)N1Cc1ccc(N2CCN(C(=O)C3CC3)CC2)cc1F (single isomer, unassigned) [Example 58] | 14 | –
9 | CS(=O)(=O)N1CCC(Oc2ccc(CN3CCCC(c4ccccc4)S3(=O)=O)c(F)c2)CC1 (single isomer, unassigned) [Example 4] | 37 | –
10 | C[C@H]1CCC(c2ccccc2)S(=O)(=O)N1Cc1ccc(N2CCC(n3cccn3)CC2)cc1F (stereo partly drawn) [Example 209, (3S)-2-[2-Fluoro-4-(4-pyrazol-1-yl-piperidin-1-yl)-benzyl]-3-methyl-6-phenyl-[1,2]thiazinane 1,1-dioxide] | 121 | –
11 | C[C@H]1CCC(c2ccccc2)S(=O)(=O)N1Cc1ccc(N2CC(C3CCOCC3)C2)cc1F (single isomer, unassigned) [Example 108] | 33 | –

Second part, the molecule after the results:

Row | IC50 [1] [nM] | IC50 [nM] | Compound
12 | – | 559 | C[C@H]1CCC(c2ccccc2)S(=O)(=O)N1Cc1ccc(OCC2CCOC2)cc1 (stereo partly drawn) [Example 430, (3S)-Methyl-6-phenyl-2-[4-(tetrahydro-furan-3-ylmethoxy)-benzyl]-[1,2]thiazinane 1,1-dioxide]
13 | 34 | – | COC(=O)[C@@H]1CN(c2ccc(CN3[C@@H](C)CCC(c4ccccc4)S3(=O)=O)c(F)c2)CCN1C(C)=O (stereo partly drawn) [Example 382, (S)-1-Acetyl-4-[3-fluoro-4-((3S)-methyl-1,1-dioxo-6-phenyl-[1,2]thiazinan-2-ylmethyl)-phenyl]-piperazine-2-carboxylic acid methyl ester]
14 | 38 | – | C[C@H]1CCC(c2ccccc2)S(=O)(=O)N1Cc1ccc(N2CCC(c3nnco3)CC2)cc1F (stereo partly drawn) [Example 210, (3S)-2-[2-Fluoro-4-(4-[1,3,4]oxadiazol-2-yl-piperidin-1-yl)-benzyl]-3-methyl-6-phenyl-[1,2]thiazinane 1,1-dioxide]
15 | 7420 | – | C[C@H]1CCC(c2ccccc2)S(=O)(=O)N1Cc1ccc(C(=O)N2CCN(S(=O)(=O)N(C)C)CC2)cc1 (stereo partly drawn) [Example 286, 4-[4-((3S)-Methyl-1,1-dioxo-6-phenyl-[1,2]thiazinan-2-ylmethyl)-benzoyl]-piperazine-1-sulfonic acid dimethylamide]
16 | 5060 | – | C[C@H]1CCC(c2ccccc2)S(=O)(=O)N1Cc1ccc(C(=O)N2CCCOCC2)cc1 (stereo partly drawn) [Example 282, [4-((3S)-Methyl-1,1-dioxo-6-phenyl-[1,2]thiazinan-2-ylmethyl)-phenyl]-[1,4]oxazepan-4-yl-methanone]
17 | – | 641 | C[C@H]1CCC(c2ccccc2)S(=O)(=O)N1Cc1ccc(OCC2CC2)cc1 (stereo partly drawn) [Example 431, 2-(4-Cyclopropylmethoxy-benzyl)-(3S)-methyl-6-phenyl-[1,2]thiazinane 1,1-dioxide]
